Active and inactive are the calls of the source.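 The calls were made as follows: active = compounds giving half or more protection of infected cells from virus-caused growth loss, again on retest; inactive = the rest.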 Where a SMILES comes first, the peptide text is derived from it. [ ]: non-standard residue; d: D form. The star is where a group is joined. NMeF = CN[CH](Cc1ccccc1)C(=O)O; NMeV = CN[CH](C(=O)O)C(C)C; Boc = CC(C)(C)OC(=O)*; OBn = c1ccc(CO*)cc1
System: CEM cells HIV-1 protection, formazan growth assay
Assay: NCI AIDS Antiviral Assay
Details: for IC50: measured here: growth of uninfected CEM cells
How it was run: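 Protection of CEM cells against HIV-1 was scored from cell growth (soluble formazan) across five concentrations, with parallel uninfected cells. Lack of protection may reflect toxicity.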

SMILES	EC50	IC50	outcome
O=C(CCCC(=O)N/N=C/c1ccc(O)c(O)c1)N/N=C\c1ccc(O)c(O)c1	> 200 µM	29.5 µM	–
C=CCOc1ccc(N)c([N+](=O)[O-])c1	> 200 µM	> 200 µM	–
O=S(=O)(OCCCCOS(=O)(=O)c1ccc(Cl)c(Cl)c1)c1ccc(Cl)c(Cl)c1	–	–	inactive
COc1cc(-c2[o+]c3cc(O)cc(O)c3cc2O)cc(O)c1O	> 200 µM	15.1 µM	–
Cc1cc(C)c(NC(=O)c2cnccn2)c(=O)o1	> 200 µM	> 200 µM	–
N.N.O=C([O-])P(=O)([O-])[O-].[Na+].[Pt+4]	> 4170 µM	155 µM	–
CN(C)CCCNc1ccc([N+](=O)[O-])c2nc3ccccc3c(N)c12	> 200 µM	0.209 µM	–
CC(=O)O/C(=C(/C#N)C(=O)O)C1C(C(=O)O)C(c2ccccc2[N+](=O)[O-])C=C(c2ccco2)N1c1ccncc1 (configuration not stated)	> 20 µM	2.4 µM	–
Cc1cc(NS(=O)(=O)c2ccc(NC(=O)c3cccc4c(N)c5ccccc5nc34)cc2)no1	> 93.3 µM	43.7 µM	–
C=C1CN(S(=O)(=O)c2ccc(C)cc2)CCCN(Cc2ccccc2)CCN(S(=O)(=O)c2ccc(C)cc2)C1	> 200 µM	155 µM	–
N#Cc1c(SCc2ccccc2)nc(-c2ccccc2)[nH]c1=S	> 151 µM	19.5 µM	–
CCOC(=O)c1ccc[c]([Sb](=[O])([OH])[OH])c1	4.9 µM	398 µM	–
Cn1c(=S)[nH]n(CCOc2ccccc2)c1=S	> 200 µM	> 200 µM	–
CCCCCC1CC=CC(NC(=O)OCc2ccccc2)C1/C=C/C(=O)CCCCCOC(=O)c1ccc(Br)cc1 (configuration not stated)	–	–	inactive
Cc1c(O)c2ccccc2c2c1sc(NCCO)[n+]2C	> 79.4 µM	40.7 µM	–
Nc1nccc(CCc2ccccc2)n1	> 36.3 µM	> 36.3 µM	–
Cc1cccc(NC(=O)C(=O)C(C2OC(=O)c3ccccc32)[N+](=O)[O-])c1C (configuration not stated)	–	–	inactive
O=c1cc(Cl)c(=O)n(-c2ccccc2)[nH]1	> 1120 µM	1070 µM	–
O=C(CC(=O)Nc1cccc(C(=O)O)c1)Nc1cccc(C(=O)O)c1	> 200 µM	> 200 µM	–
C[N+]1([O-])CCOCC1	> 200 µM	> 200 µM	–
CCN(CC)c1ccc(N=Nc2ccc(-c3nc4ccc[n+](C)c4o3)cc2)cc1	> 2.04 µM	> 2.04 µM	–

SMILES	EC50	IC50	outcome
C[N+]12CCCCC1C(COc1cccc3cccnc13)CCC2 (configuration not stated)	> 200 µM	117 µM	–
CC(=O)O[C@H]1CC[C@H]2[C@@H]3CCC4=CC(=O)C=C[C@]4(O)[C@H]3CC[C@]12C	> 200 µM	10.2 µM	–
COC(=O)C1OC12CCCCC2 (configuration not stated)	> 200 µM	> 200 µM	–
CCOCC(NC(=O)C(CC(C)C)NC(=O)OC(C)(C)C)C(N)=O (stereo not drawn) (Boc-Leu-Ser(Et)-NH2; configuration not given here)	> 200 µM	> 200 µM	–
O=c1[nH]c(SCc2c(Cl)c(Cl)c(Cl)c(Cl)c2Cl)nc(=S)[nH]1	> 200 µM	83.2 µM	–
O=S1(=O)c2ccccc2C(O)(c2ccccc2)c2cc3ccccc3n21 (configuration not stated)	> 27.5 µM	> 27.5 µM	–
COC1OOC(OC)c2ccccc2-c2ccccc21 (configuration not stated)	> 200 µM	12.3 µM	–
CCCC(=O)Nc1ccc2c(ccn2COC)c1	> 200 µM	> 200 µM	–
COc1cc(O)c2c(c1C)C(C)(O)c1c(C)coc1C2=O (configuration not stated)	–	–	inactive
N#CC1C(=O)Nc2sc(C(=O)c3ccc(Br)cc3)c(N)c2C12CCCCC2 (configuration not stated)	> 200 µM	11.5 µM	–
COC(=O)C(CCC#N)(CCC#N)C(=O)OC	> 21.9 µM	> 21.9 µM	–
CC(C)C1=CC(=O)C(C)(C2=NC(C)(C)CO2)c2ccccc21 (configuration not stated)	> 437 µM	> 437 µM	–
CC1CC(C)(C)NCCNC(C)CC(C)(C)NCCN1 (configuration not stated)	195 µM	> 200 µM	–
N#CC(C(=O)CCC(=O)Nc1cccc(C(F)(F)F)c1)c1ccccc1 (configuration not stated)	> 692 µM	> 692 µM	–
NC(=S)NC/C=C/Cl	> 200 µM	> 200 µM	–
O=[N+]([O-])c1cc(S(=O)(=O)c2ccc(Cl)c([N+](=O)[O-])c2)ccc1Cl	> 200 µM	2.34 µM	–
COc1ccc(C(=O)C(CO)Oc2ccccc2OC)cc1OC (configuration not stated)	> 759 µM	513 µM	–
COC(=O)c1cc(C(=Cc2c(F)c(F)c(F)c(F)c2F)c2cc(Cl)c(OC)c(C(=O)OC)c2)cc(Cl)c1OC	> 17.4 µM	> 17.4 µM	–
CCCCCCCCCCCOC(=S)NC(C)C	–	–	inactive
COc1cc2c(cc1OC)C1C=NC(C(=O)O)(C2)c2ccccc21 (configuration not stated)	–	–	inactive
COC(=O)CN1C(=O)C2(C(=O)OC)OC1(c1ccc([N+](=O)[O-])cc1)C1C(=O)N(c3ccccc3)C(=O)C12 (configuration not stated)	> 200 µM	> 200 µM	–

SMILES	EC50	IC50	outcome
Cc1ccc(C2=C(O)C(=O)C(c3ccc(C)cc3)=C(O)C2=O)cc1	> 52.5 µM	26.3 µM	–
O=C(O)c1cc2c([nH]1)-c1cc(C(=O)O)c(C(=O)O)nc1C(=O)C2=O	–	–	inactive
CC(C)C(NC(=O)OC(C)(C)C)C(=O)N(C)C(Cc1ccccc1)C(=O)N(C)C(C(=O)N(C)C(C(=O)OCc1ccccc1)C(C)C)C(C)C (configuration not stated) (Boc-V[NMeF][NMeV][NMeV]-OBn; configuration not given here)	> 200 µM	> 200 µM	–
O=C(Nc1ccccc1)OCCN=C1c2ccccc2C(Br)C(Br)c2ccccc21 (configuration not stated)	> 200 µM	0.794 µM	–
CC1C(c2ccc3c(c2)OCO3)c2cc3c(cc2OC1N1CCOCC1)OCO3 (configuration not stated)	> 200 µM	10.7 µM	–
CN(C)C(=S)Nc1nnc(Nc2ccccc2)s1	–	–	inactive
NNC(=O)c1nnn(CCc2ccccc2)c1C(=O)NN	> 200 µM	> 200 µM	–
COC(CNC(=O)CNC(=O)c1ccc(C(F)(F)F)cc1)OC	–	–	inactive
Cc1ccc(Cc2nn(C)c(=O)n2N)cc1	–	–	inactive
O=C(O)C(=O)O	> 427 µM	> 427 µM	–
C=C1CN(S(=O)(=O)c2ccc(C)cc2)CCN(Cc2ccccc2)CCN(S(=O)(=O)c2ccc(C)cc2)C1	> 200 µM	> 200 µM	–
Cc1ccc(N(CC(=O)O)S(=O)(=O)c2ccccc2)cc1	–	–	inactive
CCCCCCCCCCCCCCCCOP(=O)(O)OP(=O)(O)OCC1OC(n2cnc3c(N)ncnc32)C(O)C1O (configuration not stated)	> 200 µM	120 µM	–
CCOC(=O)Cc1ccc(-c2cn3c(n2)sc2ccccc23)cc1	> 200 µM	> 200 µM	–
CC(C)CCCC(C)[C@H]1CC[C@H]2[C@@H]3CC[C@H]4C[C@@H](CCC=C(c5cc(Cl)c(OCC(=O)O)c(C(=O)O)c5)c5cc(Cl)c(OCC(=O)O)c(C(=O)O)c5)CC[C@]4(C)[C@H]3CC[C@]12C (some centres not stated)	91.2 µM	> 100 µM	–
CC1=CC(=O)C2[C@@H](C1)C1(C)C(=O)C34OC(=O)C[C@@](C)([C@H]1C(=O)[C@@H]2C)[C@]3(C)CC[C@]12C[C@@H](C)C[C@H](CN41)O2 (some centres not stated)	–	–	inactive
O=C(O)CCC1c2[nH]c3ccccc3c2CCN1Cc1ccccc1 (configuration not stated)	–	–	inactive
Cc1ccc(S(=O)(=O)n2ccnc2)cc1	> 200 µM	> 200 µM	–
COc1ccccc1/C=N/Nc1nnc2c3ccccc3c3ncccc3c2n1	> 200 µM	138 µM	–
COC(=O)Sc1c2sc(C(=O)OC)c(C)c2n2ccccc12	–	–	inactive
O=[N+]([O-])c1ccc([As](=O)(O)O)cc1	> 200 µM	> 200 µM	–
